Reference: patent publication US12264175B2, “Compositions and methods for capping RNAS” (Verve Therapeutics, Inc., priority 2020, dated 2025)

Assays:
T7 RNA polymerase [1] = target: T1, T7 RNA polymerase (Escherichia phage T7, UniProt P00573); experiment: One-pot IVT preparation of 5′ capped mRNA (production yield, full-length purity); assay type: biochemical
Description: The 5′ end initiator, 1007a, (FIG. 1A) was used to prepare capped mRNAs that encode for ABE and luciferase proteins. In this Example and for all others described herein, the ABE mRNA sequence was MA004 (SEQ. 0001) and the luciferase mRNA sequence was the Photinus pyralis (Firefly) luciferase sequence described in NCBI reference sequence XM_031473197.1. These mRNA can be produced by different methods well known in the art. One of such methods used herein was in vitro transcription (IVT) using T7 polymerase; or in other embodiments, additional RNA polymerase variants. This IVT reaction to produce mRNA used a linearized DNA template that comprised a T7 polymerase promoter and associated regulatory sequences, mRNA coding sequence (CDS), 3′ and 5′ untranslated regions (UTRs), poly A tail, and additional sequence elements to facilitate and modulate mRNA stability and in vivo performance. Prior to IVT, the DNA template was in the form of a plasmid; in other embodiments the DNA template is in the form of a PCR product, synthetic DNA product, or any other double-stranded DNA construct. Linearization of the DNA template with a restriction digestion enzyme was performed in order to promote run-off transcription. The typical IVT reaction included T7 polymerase, DNA template, RNase inhibitor, cap analog, inorganic pyrophosphatase, and the naturally occurring ribonucleoside triphosphates (NTPs) such as GTP, ATP, CTP, and N1-methyl pseudouridine triphosphosphate; in some embodiments NTPs include UTP or modified NTPs such as pseudouridine, 5′methyl cytidine, 5-methoxy uridine, N6-methyl adenosine, and N4-acetyl cytidine. The 1007a 5′ end initiator was added to the IVT reaction along with ATP, GTP, CTP, and N1-methyl pseudouridine triphosphate at a 1:1 initiator-to-NTP molar ratio and additional ratios described in Example 5 (B). Poly A tail was encoded in the DNA template that was added to the mRNA during transcription; in some instances, poly A tail is added to the mRNA after the IVT reaction using an RNA ligase enzyme. Finally, T7 RNA polymerase was added to the mixture and the IVT reaction was run at 37° C. for about 1-4 hours. After IVT, DNase was added to the transcription mixture to remove DNA template; in some instances, residual DNA is removed with chromatography. This mRNA was purified to remove residual reaction products and impurities, and stored in 1 mM citrate buffer. Characterization of production yield and mRNA full-length purity was performed by UV spectrometry and capillary gel electrophoresis methods, which are known in the art. […] Similar IVT and purification process are used to produce mRNA encoding SpCas9, Cas12b, CBE, and other ABEs; in all cases the DNA template, reaction conditions, and purification parameters are optimized for the specific gene of interest.
Similarly, ABE encoding mRNA with 5′ end region, 1107a, (FIG. 1B) was produced and characterized as described in the paragraph above.

T7 RNA polymerase [2] = target: T1, T7 RNA polymerase; experiment: mRNA capping efficiency at adjusted 5′ end initiator-to-NTP molar ratio; assay type: biochemical; settings: initiator-to-NTP ratio ranging from 1:1 down to 1:1.67; FIG. 4
Description: The amount of capped mRNA produced in an IVT reaction is directly proportional to the ratio of cap to NTPs in the reaction mixture (Stepinski, J. et al., RNA. 2006, 7, 1486-1495). The 5′ end initiator-to-NTP ratio in an IVT reaction impacts the amount of mRNA that becomes capped primarily because cap can compete with NTPs for insertion at the 5′ end of mRNA. A typical initiator-to-NTP ratio for a dinucleotide cap structure is 4:1 and a typical molar initiator-to-NTP ratio for a trinucleotide cap structure is 1:1; where NTP represents either GTP, ATP, CTP, UTP, or modified NTPs such as N1-methyl pseudouridine. At both a 4:1 ratio for a dinucleotide cap and 1:1 ratio for a trinucleotide cap, the resultant mRNA will have a mixture of transcripts of which at least 80% are capped at the 5′ end and up to 20% are uncapped, this is also described as a capping efficiency of 80%. Capping efficiency is the measured amount of capped mRNA divided by the total amount of capped mRNA plus uncapped mRNA. Therefore, trinucleotide caps can be considered more efficient capping compounds than dinucleotide caps since less input cap is required to produce a final mRNA product that contains a similar amount of capped 5′ ends. The ability of trinucleotide caps to produce a high (>90%) capping efficiency at a lower initiator-to-NTP ratio than dinucleotide caps, in some instances, can be attributed to the increased affinity of a trinucleotide cap for the DNA template. In some cases, the optimal cap-to-NTP ratio may vary with the composition of the cap structure, wherein modification of cap structures may affect capping efficiency. […]
The amount of capped mRNA relative to the total amount of mRNA that is present, i.e. capping efficiency, can be measured by numerous methods well known in the art. […]

[3] = system: primary human liver hepatocytes (hPH); experiment: ABE protein levels by ELISA after mRNA transfection of primary human hepatocytes; assay type: cell-based; settings: ABE mRNA transfected to hPH cells, FIG. 6
Description: Primary human liver hepatocytes (hPH), primary cynomolgus liver hepatocytes (cPH), or primary mouse liver hepatocytes (mPH) are cultured per the manufacturer's protocol. In brief, the cells are thawed and resuspended in hepatocyte thawing medium followed by centrifugation at 100 g for 10 min at 4° C. The supernatant is discarded, and the pelleted cells resuspended in hepatocyte plating medium. Each vial contains ˜5 million cells that are used for plating one 24-well plate. Plated cells are allowed to settle and adhere for 4-6 h in a tissue culture incubator at 37° C. under 5% CO2 atmosphere. After incubation, cells are checked for monolayer formation. The incubating media is then replaced with fresh hepatocyte maintenance media The cells thus are ready for transfection using a transfection agent such as MessengerMAX. Solution A: desired amount of single guide RNA (sgRNA) is mixed with 1:1 wt ratio of mRNA in OptiMEM. Solution B: MessengerMAX in OptiMEM. After mixing solutions A and B, the mixture is incubated at room temperature for 20 minutes, and then the incubated solution is added dropwise to each well of cells. The cells are then allowed to remain at 37° C. for 3 days. […] For example, mRNA with 5′ end region motifs, 1007a and 1107a, were transfected to hPH cells as described above, the cells were lysed, and ABE protein levels were measured by ELISA. […]

T7 RNAP = T7 RNAP (Escherichia phage T7, UniProt P00573); settings: first initiating NTP / guanosine; J. Mol. Biol. (2007) 370, 256-268; cited from earlier work
Chain of T7 RNAP (P00573 whole entry): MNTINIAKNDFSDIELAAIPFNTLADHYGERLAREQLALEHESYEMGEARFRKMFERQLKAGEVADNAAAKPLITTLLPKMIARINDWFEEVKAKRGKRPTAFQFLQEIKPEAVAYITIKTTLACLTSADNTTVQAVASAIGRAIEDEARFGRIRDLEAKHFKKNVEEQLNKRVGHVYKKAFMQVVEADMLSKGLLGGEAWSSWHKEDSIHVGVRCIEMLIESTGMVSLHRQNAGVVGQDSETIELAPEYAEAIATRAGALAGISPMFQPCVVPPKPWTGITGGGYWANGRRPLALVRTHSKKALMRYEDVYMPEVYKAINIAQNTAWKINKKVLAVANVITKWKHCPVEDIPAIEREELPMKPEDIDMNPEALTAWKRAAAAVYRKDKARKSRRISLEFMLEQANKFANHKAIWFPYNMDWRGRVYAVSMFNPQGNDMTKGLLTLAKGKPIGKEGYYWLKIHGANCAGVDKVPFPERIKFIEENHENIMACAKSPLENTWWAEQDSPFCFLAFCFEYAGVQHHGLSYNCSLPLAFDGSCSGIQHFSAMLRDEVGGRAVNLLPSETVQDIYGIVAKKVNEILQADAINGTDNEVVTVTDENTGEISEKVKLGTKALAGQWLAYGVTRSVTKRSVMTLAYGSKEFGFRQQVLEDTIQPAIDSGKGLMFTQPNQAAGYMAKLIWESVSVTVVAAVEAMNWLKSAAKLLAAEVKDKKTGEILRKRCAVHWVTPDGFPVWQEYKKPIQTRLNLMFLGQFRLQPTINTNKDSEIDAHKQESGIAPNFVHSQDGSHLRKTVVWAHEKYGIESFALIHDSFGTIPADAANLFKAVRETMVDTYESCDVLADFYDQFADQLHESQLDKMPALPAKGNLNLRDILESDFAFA

T1 sequence (P00573 whole entry): as above

Structure (SMILES)	final production yield of mRNA (T7 RNA polymerase [1]; ABE encoding mRNA made with the 5′ end initiator, T7 IVT, FIG. 2)	mRNA full-length purity (T7 RNA polymerase [1]; ABE encoding mRNA made with the 5′ end initiator, capillary gel electrophoresis, FIG. 3)	amount of full-length mRNA produced (T7 RNA polymerase [1]; initiator-to-NTP ratio ranging from 1:1 down to 1:5, FIG. 3)	capping efficiency (T7 RNA polymerase [2]) [%]	ABE protein levels as compared to mRNA with 5′ end region motif 1002a [3]	Kd (T7 RNAP) [µM]
COC1C(OP(=O)(O)OCC2OC(n3cnc4c(=O)[nH]c(N)nc43)C(O)C2O)C(COP(=O)(O)OP(=O)([S-])OP(=O)(O)OCC2OC(n3c[n+](C)c4c(=O)[nH]c(N)nc43)C(O)C2O)OC1n1cnc2c(N)ncnc21 (stereo not drawn) [1107a, m^7G(ppsp)Am(p)G]	about 3.3 mg per 1 ml of IVT reaction	about 86%	did not reduce	> 90	similar	–
Nc1nc2c(ncn2[C@@H]2O[C@H](COP(=O)(O)OP(=O)(O)OP(=O)(O)O)[C@@H](O)[C@H]2O)c(=O)[nH]1 [GTP]	–	–	–	–	–	2000
